Measured values from patent US5958881A, “Composition containing VIP for injection and a method of enhancing visualization of tissues during medical procedures” (priority 1992, dated 1999).
Read-outs that look alike come from different tables or passages of the source.

What was measured:
[1] = dose dependent; cited from earlier work
[2] = test system: gastroduodenal motility; details: cited from earlier work
[3] = test system: opossum duodenum; details: cited from earlier work
[4] = test system: antroduodenal activity; details: 1 mg IV followed by 2 mg IV over 2 hours; cited from earlier work
[5] = test system: gastrointestinal motility; details: controlled studies; cited from earlier work
[6] = in vivo; cited from earlier work
[7] = Procedure: During the period of observation, vital signs (blood pressure and pulse) and symptoms were continuously recorded. The protocol was such that if the blood pressure dropped by more than 20 mm Hg systolic or diastolic or the pulse increased by more than 30 beats per minute for 2 minutes, intravenous saline was to be administered and the study terminated.

glucagon
dose at which nausea and vomiting can appear [1]: 1 mg
gastroduodenal motility ([2]; dose-dependent): variable reduction
minimally effective dose ([2]; reduction in gastroduodenal motility): 0.5 mg
effect on duodenum muscle [3]: stimulated relaxation
cycle length and time between contractile activity in the duodenum [4]: significantly increased
mean pressure period [4]: decreased

CN1[C@@H]2CC[C@H]1C[C@@H](OC(=O)C(CO)c1ccccc1)C2 (some centres unmarked) [atropine]
improvement in patient tolerance or facilitation of endoscopy [5]: failed to demonstrate any beneficial effects
cardiac arrhythmias [6]: increased risk
undesirable side effects [6]: blurred vision, headache, and urinary retention

CC[C@H](C)[C@H](NC(=O)[C@H](CO)NC(=O)[C@H](CC(N)=O)NC(=O)[C@H](CC(C)C)NC(=O)[C@H](Cc1ccc(O)cc1)NC(=O)[C@H](CCCCN)NC(=O)[C@H](CCCCN)NC(=O)[C@@H](NC(=O)[C@H](C)NC(=O)[C@H](CCSC)NC(=O)[C@H](CCC(N)=O)NC(=O)[C@H](CCCCN)NC(=O)[C@H](CCCN=C(N)N)NC(=O)[C@H](CC(C)C)NC(=O)[C@H](CCCN=C(N)N)NC(=O)[C@@H](NC(=O)[C@H](Cc1ccc(O)cc1)NC(=O)[C@H](CC(N)=O)NC(=O)[C@H](CC(=O)O)NC(=O)[C@@H](NC(=O)[C@H](Cc1ccccc1)NC(=O)[C@@H](NC(=O)[C@H](C)NC(=O)[C@H](CC(=O)O)NC(=O)[C@H](CO)NC(=O)[C@@H](N)Cc1c[nH]cn1)C(C)C)[C@@H](C)O)[C@@H](C)O)C(C)C)C(=O)N[C@@H](CC(C)C)C(=O)N[C@@H](CC(N)=O)C(N)=O [VIP, vasoactive intestinal peptide]
need to terminate the study ([7]; criterion: blood pressure drop >20 mm Hg or pulse increase >30 beats per minute for 2 minutes): none of the three patients
effects on blood pressure and pulse ([7]; first patient, higher dose level (20 ng/kg)): not seen
effect on blood pressure and pulse ([7]; first patient, initial dose of 5 ng VIP per kg): slight decrease in systolic pressure and increase in pulse
effect on blood pressure ([7]; gastroparetic dose): without a significant effect
side effects of nausea and vomiting ([7]; method of the invention): free of the negative side effects of nausea and vomiting
change in blood pressure or pulse ([7]; second patient, any of the dosages tested (5, 20, 100 ng/kg)): no significant change
change in blood pressure or pulse ([7]; third patient, any dose of VIP administered): no significant change
adverse reactions such as nausea or vomiting ([7]; three patients, 5-300 ng/kg IV): None of the three patients
